Source: patent publication US7186703B2, “Derivatives of branched-chain lipophilic molecules and uses thereof” (D-Pharm Ltd., priority 2000, dated 2007)
Several values for one entry are separate records, joined by “and”; a condition that tells them apart may be missing. Equal values may be shown once.

Columns and labels:
[1] = tested on: blood brain barrier (BBB); experiment: BBB opening in C6 glioma-bearing rats, Evans blue accumulation in non-tumor brain; type: in vivo, Sprague Dawley rats; settings: concentrations around EC50 (Mannitol 25%), unilateral 30 s infusion
Experimental: (§1) In order to study the ability of DP-BFA compounds to modulate blood tumor barrier (BTB), a model system of C6 glioma-bearing rats, was employed.
(§2) Sprague Dawley (SD) rats were inoculated with C6 gliosarcoma cells following the procedure described by Bartus et al. (Exp Neurol (1996); 142:14–28). A small burr-hole was made in the frontal scalp bone of the rat fixed in a stereotaxis apparatus. Using a Hamilton syringe, 10 μl or 5 μl of media, containing 2.5×10^5 C6 gliosarcoma cells were inoculated into the frontal cortex. Coordinates were 1 mm posterior of bregma, 2.5 mm—lateral, and 3 mm—depth. The needle remained in the place for 5 min. After removal of the needle, fascia and scalp were sutured. The rats were checked 6–8 days after inoculation, when tumors of sufficient size (20–60 mg) had developed. The tumor was weighed after F—Na visualization and dissection. Parts of the rats' brains were subject to histological examinations and monitored for Evans Blue and Fluorescein uptake into ipsilateral tumour tissue, peritumoural tissue and contralateral tissue.
(§3) The bilateral tumor model system of C6 glioma-bearing rats described in Example 23 above was employed for screening of various derivatives of DP-BFA for their ability to permeabilize the blood brain barrier (BBB) in comparison to their effect on the blood tumor barrier (BTB). The experimental procedure described in Example 23 was followed except that the tumor-bearing rats were further treated with DP-BFA. The tested compounds, at concentrations around their EC50 values, were unilaterally infused into the external carotis artery over 30 seconds as described in Example 17. Animals treated with vehicle only serve as a control group. Permeabilization effect was quantitated by measuring accumulation of albumin bound Evans blue dye in tumor (T) versus non-tumor (NT) tissues.
(§4) Specificity index is defined as the ratio between the levels of EB accumulated in tumor and those accumulated in non-tumor brain tissues (T/NT).

[2] = Octanol/saline solubility and partition coefficient, shake-flask technique; settings: for LogPc (octanol-saline partition coefficient): octanol/physiological saline; for LogPc (octanol-saline partition coefficient) / Water mg/ml (solubility in aqueous solution): sodium salts; for Water mg/ml (solubility in aqueous solution): physiological saline as aqueous solution; for Octanol mg/ml (solubility in octanol): sodium salts of the branched fatty acids and their PO4 derivatives
Experimental: The lipophilicity values of various derivatives of branched fatty acids were estimated by comparing the solubility of these compounds in organic versus aqueous solutions. Octanol and physiological saline were used, respectively, as the organic and aqueous solutions. The partition coefficient (Pc) value, i.e. the octanol/saline distribution was measured by the shake-flask technique.

[3] = tested on: blood brain barrier (BBB); experiment: BBB permeability to EB-albumin and Fluorescein in normal rat brains; type: in vivo; settings: compounds at EC50 (Mannitol 25%); for Ratio F-Na/EB (mean of individual ratios): control 9.5 ± 1.6
From the text: The effect of various DP-BFAs on BBB permeabilization to molecules of different sizes was examined in vivo in the model system of normal rat brains.
The transport of two markers was followed: a) Evans blue bound to albumin (MW 70 kD) as an indicator for paracellular transport; and b) Fluorescein sodium salt (MW 376 D) that represents small size molecules.
The Evans blue dye (EB) and Fluorescein sodium salt (F—Na) were infused into the artery carotis externa over 30 seconds according to the protocol described above in Example 17. The test compounds were used at their EC50 concentrations. Control animals were treated with vehicle solution.
Evans blue extravasation is expressed as the percentage of the total amount of EB accumulated per one gram of brain tissue. The transport of fluorescein into the brain, which is dependent on the serum concentration of this molecule, is presented as percentage of the F—Na level in the serum.

[4] = tested on: blood tumor barrier (BTB) of C6 glioma; experiment: BTB opening in C6 glioma-bearing rats, Evans blue accumulation in tumor; type: in vivo, Sprague Dawley rats; settings: for EC50: C6 glioma-bearing rats; for BTB EB μg/g Tumor: concentrations around EC50 (Mannitol 25%), unilateral 30 s infusion; for Specificity Tumor/Non-tumor (T/NT): ratio of EB accumulated in tumor and non-tumor brain
Experimental: as §1, §2, §3, §4

[5] = type: in vivo; settings: rats, sodium salt; for LC (minimal concentration that caused death): i.a., viability monitored 24 hours
Experimental: DP-BFA molecules were evaluated for safety and toxicity. Increasing doses of the tested compounds were administered intra-arterially (i.a.) into rats following the protocol described above in Example 17. Animal viability was monitored for 24 hours to evaluate lethal concentrations (LC). LC is defined as the minimal concentration that caused death.
Safety index is defined as the ratio between the lethal dose (LC) and the minimal effective concentration (MEC), wherein MEC corresponds to a calculated concentration of the tested compound that elicits accumulation of three times the amount of Evans blue accumulated in control animals treated with vehicle only, i.e. total accumulation of 3 μg EB. The higher the LC/MEC ratio is, the higher the safety index.

[6] = tested on: blood brain barrier (BBB); experiment: BBB permeabilization in rats, Evans blue extravasation into brain; type: in vivo, Sprague-Dawley rats; settings: for MEC: Table 8, sodium salt, in µM; for μg EB/g brain (at EC50) / EC50 / MEC (minimal effective concentration): Table 5; for EC50: rat brain, intracarotid infusion, read-out: EC50 (Evans Blue extravasation); for permeabilization of the BBB (FIG. 1, in words): Evans blue extravasation in rat brain, 3,n-type BFAs; for MEC (minimal effective concentration): concentration giving 3 μg EB/g brain
From the text: Permeabilization of the BBB by DP-BFA was investigated in rat model system by monitoring accumulation in the brain of two markers: a) Evans blue dye (EB), which rapidly binds in vivo with albumin (NW 70 kD) and is an indicator for paracellular transport; and b) Fluorescein sodium salt (F—Na), MW 376 D, which is transported via the cellular space, and enables monitoring transcellular transport. Upon BBB disruption the Evans blue-albumin complex irreversibly accumulates in the intercellular space of the brain. The much smaller tracer fluorescein may be transported intracellularly to occupy both inter and intracellular space in the brain.
Blood brain barrier permeabilization in Sprague-Dawley rats was induced by brief exposure to DP-BFA. The animals were anesthetized with Rampun-Imalgen and DP-BFA test compounds were administered via the external carotid artery retrograde to the brain (Smith, Q. R. Methods of study. In: Physiology and Pharmacology of the Blood-Brain Barrier. Ed. Bradbury M. W. B. Spinger-Verlag. Berlin-Heidelberg-NY; 1992: 24–52). The pterygo-palathina artery was ligated to avoid escape of infused solutions towards the external head vasculature. DP-BFA solutions were infused over a period of 30 seconds or half an hour, using a Harvard Apparatus Syringe Pump. Blood flow through carotid communis artery was interrupted only at the time of infusion.
All tested DP-BFA molecules were prepared from stock solutions in either water or ethanol by diluting 200–1000 fold into solution of isosmotic mannitol (5%) in Tromethamine buffer (Sigma) or PBS (pH 7.4)
The markers, Evans blue (EB, 25 mg/ml) and fluorescein (F—Na, 12.5 mg/ml), in 1 ml solution, were injected intravenously immediately following administration of the tested DP-BFA, or after a specific time interval if reversibility of action was investigated. Supportive i.v. infusion of F—Na (12.5 mg/ml–100 μl/min) was performed for 8 minutes. Brains were washed with saline solution (60 ml) 10 min after the intracarotid “flash”. Brain ipsilateral and contralateral hemispheres and tumors, where applicable, were homogenized separately with 50% trichloroacetic acid (TCA). The markers concentrations in the cortex and in tumors, where, applicable, were determined spectrofluorometrically (Uyama, O. et al., (1988) J. Cereb. Blood Flow Metab. 8, 282–284: Abraham et al., (1996) Neurosci. Lett. 208, 85–88). The markers content was calculated as μg marker per one-gram brain tissue. Standard error and Student's test for statistical significance were used.
The experiment was carried out on male Sprague-Dawley rats weighing 250–320 g. The procedure described above in Example 17 was followed.
The effect of the tested compounds on the BBB opening was evaluated by two parameters:
a) efficacy—The degree of BBB opening estimated in terms of accumulation of Evans Blue albumin (μg EB/g brain tissue); and
b) potency—measured in terms of EC50 and minimal effective concentration (MEC) values. EC50 is the concentration of a tested compound producing 50% of the maximal effect of Evans Blue extravasation.
The effect of various DP-BFAs on BBB permeability was tested in the model system of rat brains, as described above in Example 17. Efficacy, namely the level of the BBB opening was expressed as the amount of Evans blue accumulated in the brain (μg EB/g brain). Potency of the tested molecules was estimated by their calculated EC50 and minimal effective concentration (MEC) values.

| Compound | BBB EB μg/g Non-tumor brain [1] | LogPc (octanol-saline partition coefficient) [2] | Water mg/ml (solubility in aqueous solution) [2] | Octanol mg/ml (solubility in octanol) [2] | Ratio F-Na/EB (mean of individual ratios) [3] | EC50 [4] | BTB EB μg/g Tumor [4] | Specificity Tumor/Non-tumor (T/NT) [4] | LC (minimal concentration that caused death) [5] | Safety LC/MEC [5] | MEC [6] | μg EB/g brain (at EC50) [6] | EC50 [6] | permeabilization of the BBB (FIG. 1, in words) [6] | MEC (minimal effective concentration) [6] | % EB/g brain ([3]; control 0.04 ± 0.01) | Brain fluorescein uptake (% of serum F-Na level) ([3]; control 0.3 ± 0.08) |
| --- | --- | --- | --- | --- | --- | --- | --- | --- | --- | --- | --- | --- | --- | --- | --- | --- | --- |
| 4-Hexadecanyl Phosphate [3,12-PO4] | 2.5 ± 1.5 µg/g | 1.9 | >2.5 mg/mL | <5 mg/mL | 5.9 | 10 ± 2 µM | 14 ± 6 µg/g | 6.3 ± 1.3 | 63 ± 12 µM | 19.1 | 3.3 ± 0.5 | – | – | – | – | – | – |
| CCCCCCCCCCC(CCC)C(=O)[O-].[Na+] (stereo not shown) [3,10-Na, reference compound] | – | – | – | – | – | – | – | – | – | – | – | 08 μg EB/g brain | ~700 µM | – | – | – | – |
| 4-Octadecyl phosphate [3,14-PO4] | – | – | – | – | – | – | – | – | 134 ± 18 µM | 21.6 | 6.2 ± 0.9 | – | – | – | – | – | – |
| 4-Hexadecanoyloxyethyl phosphate [3,12-MEG-PO4] | 21 ± 4 µg/g | 1.09 | >10 mg/mL | >10 mg/mL | – | 22 ± 3 µM | 25 ± 3 µg/g | 1.2 ± 0.2 | 80 ± 15 µM | – | 11 ± 2 | – | – | – | – | – | – |
| CCCCCCCC(CCC)C(=O)[O-].[Na+] (stereo not shown) [3,7-Na, reference compound] | – | – | – | – | – | – | – | – | – | – | – | 0.8 μg EB/g brain | > 450 µM | – | – | – | – |
| CCCCCCCCCCCCCCCCC(CCC)C(=O)[O-].[Na+] (stereo not shown) [3,16-Na, reference compound] | – | 1.26 | 9.4 mg/mL | >20 mg/mL | – | – | – | – | 431 ± 55 µM | 23.9 | 18 ± 2 | – | 137 ± 17 µM | active | 18 ± 2 | – | – |
| CCCCCCCCCCCCCCC(CCC)C(=O)[O-].[Na+] (stereo not shown) [3,14-Na, reference compound] | – | 1.26 | >10 mg/mL | >20 mg/mL | 4.7 and 4.7 ± 1.7 | – | – | – | 78 ± 11 µM | 8.6 | 9.1 ± 1.2 | 16.5 ± 2.5 μg EB/g brain | 40 ± 5 µM | active | 9.1 ± 12 | 0.8 ± 0.07% | 3.8 ± 0.5 % of the F—Na level in the ser |
| CCCCCCCCCCCCC(CCC)OCCOCCOP(=O)(O)O (stereo not shown) [3,12-(ether)-DEG-PO4, 2-(4′-Hexadecanyloxy)ethoxyethyl phosphate] | – | 0.83 | >5 mg/mL | >5 mg/mL | – | – | – | – | – | – | – | – | – | – | – | – | – |
| CCCCCCCC(CCCCCCC)OP(=O)(O)O [7,7-PO4, 8-Pentadecyl phosphate] | – | <5 | >10 mg/mL | >10 mg/mL | – | – | – | – | – | – | – | – | – | – | – | – | – |
